Data: US20250034216A1, “STEREOSELECTIVE COVALENT LIGANDS FOR ONCOGENIC AND IMMUNOLOGICAL PROTEINS” (The Scripps Research Institute, priority 2021, published 2025)

Key:
Assay in all cases: IA-DTB cysteine engagement
Type in all cases: binding
PTGR1_C239 = target: T1, PTGR1_C239 (Homo sapiens, UniProt Q14914); conditions: 22Rv1 cells, relative to DMSO; for % engagement PTGR1_C239: 20 μM probe, 1 h; for % engagement PTGR1_239: 5 μM probe, 1 h (FIG. 5B)
T1 construct: endogenous in cells; host or cells: 22Rv1
In short: (§1)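 In-situ probe treatment of cells; lysate 2 mg/mL, IA-DTB 1 h RT; MeOH/CHCl3 precipitation, DTT/iodoacetamide, trypsin; streptavidin enrichment; TMT labeling, high-pH fractionation. Ratio = TMT reporter intensity / mean DMSO channels, median-normalized.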

MGST3_C56 = target: T2, MGST3_C56 (Homo sapiens, UniProt O14880); conditions: 22Rv1 cells, 20 μM probe, 1 h, relative to DMSO
T2 construct: endogenous in cells; host or cells: 22Rv1
In short: as §1

NT5DC2_C507 = target: T3, NT5DC2_C507 (Homo sapiens, UniProt Q9H857); conditions: 22Rv1 cells, 20 μM probe, 1 h, relative to DMSO
T3 construct: endogenous in cells; host or cells: 22Rv1
T3 sequence (Q9H857 1-520): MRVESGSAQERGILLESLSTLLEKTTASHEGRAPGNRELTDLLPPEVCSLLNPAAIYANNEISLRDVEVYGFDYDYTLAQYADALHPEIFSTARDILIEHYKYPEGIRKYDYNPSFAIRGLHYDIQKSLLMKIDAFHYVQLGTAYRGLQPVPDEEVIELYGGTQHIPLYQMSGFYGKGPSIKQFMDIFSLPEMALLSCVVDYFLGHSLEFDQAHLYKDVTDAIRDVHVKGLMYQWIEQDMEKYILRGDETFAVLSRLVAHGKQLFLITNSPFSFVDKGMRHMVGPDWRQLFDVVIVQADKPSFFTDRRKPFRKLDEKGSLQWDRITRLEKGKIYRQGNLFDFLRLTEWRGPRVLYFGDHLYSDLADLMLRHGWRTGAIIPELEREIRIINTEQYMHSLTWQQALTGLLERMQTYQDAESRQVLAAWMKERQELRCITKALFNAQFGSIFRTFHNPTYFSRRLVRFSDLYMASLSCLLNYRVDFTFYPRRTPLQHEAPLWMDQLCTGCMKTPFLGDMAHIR
In short: as §1

SRC_C280 = target: T4, SRC_C280 (Homo sapiens, UniProt P12931); conditions: 22Rv1 cells, 20 μM probe, 1 h, relative to DMSO
T4 construct: endogenous in cells; host or cells: 22Rv1
In short: as §1

LAPTM4A_C23 = target: T5, LAPTM4A_C23 (Homo sapiens, UniProt Q15012); conditions: 22Rv1 cells, 20 μM probe, 1 h, relative to DMSO
T5 construct: endogenous in cells; host or cells: 22Rv1
In short: as §1

MTMR12_C152 = target: T6, MTMR12_C152 (Homo sapiens, UniProt Q9C0I1); conditions: 22Rv1 cells, 20 μM probe, 1 h, relative to DMSO
T6 construct: endogenous in cells; host or cells: 22Rv1
T6 sequence (Q9C0I1 1-747): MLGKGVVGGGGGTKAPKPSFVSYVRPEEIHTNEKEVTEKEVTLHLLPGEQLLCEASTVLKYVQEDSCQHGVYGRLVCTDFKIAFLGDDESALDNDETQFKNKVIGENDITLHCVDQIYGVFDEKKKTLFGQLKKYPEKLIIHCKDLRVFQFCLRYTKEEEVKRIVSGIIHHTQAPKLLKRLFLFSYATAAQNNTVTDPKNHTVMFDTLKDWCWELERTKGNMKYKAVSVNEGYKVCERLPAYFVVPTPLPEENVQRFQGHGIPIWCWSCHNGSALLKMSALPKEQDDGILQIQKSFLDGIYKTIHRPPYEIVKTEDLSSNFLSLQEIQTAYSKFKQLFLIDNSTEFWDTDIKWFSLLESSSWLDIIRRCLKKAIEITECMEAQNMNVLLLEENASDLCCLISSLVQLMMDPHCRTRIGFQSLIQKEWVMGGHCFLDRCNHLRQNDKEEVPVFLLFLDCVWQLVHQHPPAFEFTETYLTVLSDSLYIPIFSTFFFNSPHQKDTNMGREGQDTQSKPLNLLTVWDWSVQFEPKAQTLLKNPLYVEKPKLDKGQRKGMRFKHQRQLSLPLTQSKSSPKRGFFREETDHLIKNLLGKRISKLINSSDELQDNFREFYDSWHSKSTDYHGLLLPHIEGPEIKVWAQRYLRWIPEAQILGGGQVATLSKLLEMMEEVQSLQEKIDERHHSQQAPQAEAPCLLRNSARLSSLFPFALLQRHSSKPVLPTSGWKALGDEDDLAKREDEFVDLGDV
In short: as §1

T4 sequence (P12931 whole entry): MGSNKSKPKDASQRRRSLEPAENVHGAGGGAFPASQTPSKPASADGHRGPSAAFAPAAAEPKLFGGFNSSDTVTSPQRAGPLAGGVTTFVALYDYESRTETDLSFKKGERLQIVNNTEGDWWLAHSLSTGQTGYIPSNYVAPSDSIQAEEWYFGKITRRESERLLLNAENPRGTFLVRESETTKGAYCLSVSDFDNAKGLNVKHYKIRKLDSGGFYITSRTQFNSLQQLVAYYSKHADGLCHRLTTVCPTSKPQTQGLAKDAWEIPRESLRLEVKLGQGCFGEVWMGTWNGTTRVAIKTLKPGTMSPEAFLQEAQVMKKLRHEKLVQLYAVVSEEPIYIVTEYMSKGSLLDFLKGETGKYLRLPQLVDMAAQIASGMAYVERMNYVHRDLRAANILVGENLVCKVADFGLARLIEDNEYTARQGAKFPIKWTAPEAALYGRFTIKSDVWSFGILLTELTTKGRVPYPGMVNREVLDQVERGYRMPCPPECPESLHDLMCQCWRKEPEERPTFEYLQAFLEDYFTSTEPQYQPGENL
T2 sequence (O14880 whole entry): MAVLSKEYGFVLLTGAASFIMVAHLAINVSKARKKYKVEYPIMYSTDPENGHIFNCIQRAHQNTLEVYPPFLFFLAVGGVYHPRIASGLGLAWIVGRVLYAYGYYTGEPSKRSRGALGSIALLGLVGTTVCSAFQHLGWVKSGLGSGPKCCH
T1 sequence (Q14914 whole entry): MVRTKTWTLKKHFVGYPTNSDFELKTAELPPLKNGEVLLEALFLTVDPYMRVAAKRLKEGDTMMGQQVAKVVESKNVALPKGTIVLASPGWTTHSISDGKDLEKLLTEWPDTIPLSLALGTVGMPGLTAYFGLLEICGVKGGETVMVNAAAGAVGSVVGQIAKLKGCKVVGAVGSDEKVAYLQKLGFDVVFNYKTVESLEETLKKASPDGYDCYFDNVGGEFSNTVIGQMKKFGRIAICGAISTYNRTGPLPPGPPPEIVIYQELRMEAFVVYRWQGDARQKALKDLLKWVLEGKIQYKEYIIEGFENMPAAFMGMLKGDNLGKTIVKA

| SMILES | % engagement PTGR1_C239 (PTGR1_C239) [%] | % engagement MGST3_C56 (MGST3_C56) [%] | % engagement NT5DC2_C507 (NT5DC2_C507) [%] | % engagement SRC_C280 (SRC_C280) [%] | % engagement LAPTM4A_C23 (LAPTM4A_C23) [%] | % engagement MTMR12_C152 (MTMR12_C152) [%] | % engagement PTGR1_239 (PTGR1_C239) [%] |
| --- | --- | --- | --- | --- | --- | --- | --- |
| C=CC(=O)N1C[C@H](c2ccc(Br)cc2)[C@@H]1C(=O)Nc1cccc2cccnc12 [MY-1B, (2R,3S)-1-acryloyl-3-(4-bromophenyl)-N-(quinolin-8-yl)azetidine-2-carboxamide] | 79 | 58 | 67.25 | 92.25 | 54.5 | 31 | 81.33 |
| C=CC(=O)N1C[C@H](c2ccc(Br)cc2)[C@H]1C(=O)Nc1cccc2cccnc12 [MY-3A, (2S,3S)-1-acryloyl-3-(4-bromophenyl)-N-(quinolin-8-yl)azetidine-2-carboxamide] | −4 | 63.5 | 50.5 | 2 | 48 | 12 | – |
| C=CC(=O)N1C[C@@H](c2ccc(Br)cc2)[C@H]1C(=O)Nc1cccc2cccnc12 [MY-1A, (2S,3R)-1-acryloyl-3-(4-bromophenyl)-N-(quinolin-8-yl)azetidine-2-carboxamide] | 75 | 58.75 | 83.75 | 17.75 | 67 | 40.5 | – |

The next lines start with the values.

| % engagement PTGR1_C239 (PTGR1_C239) [%] | % engagement MGST3_C56 (MGST3_C56) [%] | % engagement NT5DC2_C507 (NT5DC2_C507) [%] | % engagement SRC_C280 (SRC_C280) [%] | % engagement LAPTM4A_C23 (LAPTM4A_C23) [%] | % engagement MTMR12_C152 (MTMR12_C152) [%] | % engagement PTGR1_239 (PTGR1_C239) [%] | SMILES |
| --- | --- | --- | --- | --- | --- | --- | --- |
| −16.5 | 73.5 | 57.5 | 64 | 72 | 91.5 | – | C=CC(=O)N1C[C@H](c2ccc(Br)cc2)[C@H]1C(=O)Nc1cccc2cccnc12 [MY-3B, (2S,3S)-1-acryloyl-3-(4-bromophenyl)-N-(quinolin-8-yl)azetidine-2-carboxamide] |
| – | – | – | – | – | – | −4.50 | CC#CC(=O)N1C[C@H](c2ccc(Br)cc2)[C@@H]1C(=O)Nc1cccc2cccnc12 [MY-45B, (2R,3S)-3-(4-bromophenyl)-1-(but-2-ynoyl)-N-(quinolin-8-yl)azetidine-2-carboxamide] |
